From patent US20060127310A1, “Amplification of biotin-mediated targeting” (priority 2002, published 2006)

Legend:
P815 tumour cells = conditions: mice bearing P815 tumour; 5 mg/kg Rhodamine conjugated to HPMA intraperitoneally; six hours after injection; FIG. 1
Experimental: For tumour accumulation studies, various strains of mice bearing a variety of tumours were injected intraperitoneally with 5 mg/kg Rhodamine conjugated to the HPMA polymers. Six hours after injection, the mice were sacrificed, their tumours removed and cryo-embedded before cryostatic sectioning. The level of accumulation of the Rhodamine-HPMA was determined by fluorescent microscopy using a Zeiss microscope equiped with Axioplan software. […] Blue staining is BisBenzamide staining of cell nuclei.

O157 = experiment: Uptake of Rhodamine-HPMA polymers into tumour cell lines; type: cell-based; set-up: key: −: Uptake was determined on a relative scale; +/−: Uptake was determined on a relative scale; +: Uptake was determined on a relative scale; ++: Uptake was determined on a relative scale; +++: Uptake was determined on a relative scale; conditions: O157, Balb/C, Bcell Lymph; 5 hours at 37° C.
Experimental: (§1) Cells from various tumour cell lines were allowed to grow for 2 days on glass slides incubated in appropriate media at 37° C. in 5% CO2. […] Cells were incubated for a further 5 hours at 37° C. in 5% CO2. At this time the media was removed and uptake into the cells was assessed by fluorescent microscopy of internalization of the rhodamine fluorophore. Uptake was determined on a relative scale.

4T1 = experiment: as above; type: cell-based; conditions: 4T1, Balb/C, Breast; 5 hours at 37° C.
Experimental: as §1

JC = experiment: as above; type: cell-based; conditions: Balb/C, Breast, 5 hours at 37° C.
Experimental: as §1

Ov 2008 = experiment: as above; type: cell-based; conditions: Ov 2008, Balb/C-Nu, Ovarian; 5 hours at 37° C.
Experimental: as §1

MMT060562 = experiment: as above; type: cell-based; conditions: MMT060562, Balb/C, Breast; 5 hours at 37° C.
Experimental: as §1

P815 = experiment: as above; type: cell-based; conditions: P815, DBA/2, Mastocytoma; 5 hours at 37° C.
Experimental: as §1

L1210 = experiment: as above; type: cell-based; conditions: L1210, DBA/2, Leukemia; 5 hours at 37° C.
Experimental: as §1

M109 = experiment: as above; type: cell-based; conditions: M109, Balb/C, Lung; 5 hours at 37° C.
Experimental: as §1

BW5147 = experiment: as above; type: cell-based; conditions: BW5147, AKR/J, Lymphoma; 5 hours at 37° C.
Experimental: as §1

L1210FR = experiment: as above; type: cell-based; conditions: DBA/2, Leukemia, 5 hours at 37° C.
Experimental: as §1

HCT-116 = experiment: as above; type: cell-based; conditions: HCT-116, Balb/C-Nu, Colon Carcin; 5 hours at 37° C.
Experimental: as §1

ID8 = experiment: as above; type: cell-based; conditions: ID8, C57/BI, Ovarian; 5 hours at 37° C.
Experimental: as §1

RENCA = experiment: as above; type: cell-based; conditions: Balb/C, Renal cell, 5 hours at 37° C.
Experimental: as §1

LL-2 = experiment: as above; type: cell-based; conditions: LL-2, C57/BI, Lung; 5 hours at 37° C.
Experimental: as §1

Ovcar = experiment: as above; type: cell-based; conditions: Ovarian, 5 hours at 37° C.
Experimental: as §1

Colo-26 = experiment: as above; type: cell-based; conditions: Colo-26, Balb/C, Colon Carcin; 5 hours at 37° C.
Experimental: as §1

B16 = experiment: as above; type: cell-based; conditions: B16, C57/BI, Melanoma; 5 hours at 37° C.
Experimental: as §1

Rhodamine-HPMA polymer
+: Uptake into the cells (internalization of the rhodamine fluorophore, fluorescent microscopy), relative scale (HCT-116)
−: Uptake into the cells (internalization of the rhodamine fluorophore, fluorescent microscopy), relative scale (4T1) | Uptake into the cells (internalization of the rhodamine fluorophore, fluorescent microscopy), relative scale (JC) | Uptake into the cells (internalization of the rhodamine fluorophore, fluorescent microscopy), relative scale (Ov 2008) | Uptake into the cells (internalization of the rhodamine fluorophore, fluorescent microscopy), relative scale (MMT060562) | Uptake into the cells (internalization of the rhodamine fluorophore, fluorescent microscopy), relative scale (P815) | Uptake into the cells (internalization of the rhodamine fluorophore, fluorescent microscopy), relative scale (L1210) | Uptake into the cells (internalization of the rhodamine fluorophore, fluorescent microscopy), relative scale (M109) | Uptake into the cells (internalization of the rhodamine fluorophore, fluorescent microscopy), relative scale (L1210FR) | Uptake into the cells (internalization of the rhodamine fluorophore, fluorescent microscopy), relative scale (ID8) | Uptake into the cells (internalization of the rhodamine fluorophore, fluorescent microscopy), relative scale (RENCA) | Uptake into the cells (internalization of the rhodamine fluorophore, fluorescent microscopy), relative scale (LL-2) | Uptake into the cells (internalization of the rhodamine fluorophore, fluorescent microscopy), relative scale (Ovcar) | Uptake into the cells (internalization of the rhodamine fluorophore, fluorescent microscopy), relative scale (Colo-26) | Uptake into the cells (internalization of the rhodamine fluorophore, fluorescent microscopy), relative scale (B16)
+/−: Uptake into the cells (internalization of the rhodamine fluorophore, fluorescent microscopy), relative scale (O157) | Uptake into the cells (internalization of the rhodamine fluorophore, fluorescent microscopy), relative scale (BW5147)
accumulation: Level of accumulation / polymer uptake by P815 tumour cells (fluorescent microscopy of cryostat sections) (P815 tumour cells)
